In assay [1] the target is human TYK2 (JH2domain-pseudokinase) (Homo sapiens (Human), UniProt P29597). Nature of the assay: TYK2 JH2 Domain Binding Assay (KINOMEscan). Particulars: 11-point 3-fold dilution, top concentration 30,000 nM, duplicate. In short, it runs like this:
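Competition binding used an NFkB-DNA-tagged fusion of TYK2 JH2 (G556–D888) expressed in HEK293 extracts against an immobilised ligand, 1 h at room temperature. Bead-bound kinase was quantified by qPCR. Kd came from an 11-point 3-fold series with a 30,000 nM top concentration and 0.9% DMSO, Hill slope −1, run in duplicate.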

In assay [2] the target is TYK2 kinase domain (JH1) (Homo sapiens (Human), UniProt P29597). Kind of assay: TYK2 Radioactive Kinase Assay. Type of assay: biochemical. Particulars: compound at 10 μM; ATP at 10 μM; 120 min at room temp. On the procedure:
(§1) Peptide substrate, [KKSRGDYMTMQIG], (20 μM) was prepared in reaction buffer (20 mM Hepes pH 7.5, 10 mM MgCl2, 1 mM EGTA, 0.02% Brij35, 0.02 mg/mL BSA, 0.1 mM […], 2 mM DTT, 1% DMSO). TYK2 (Invitrogen) kinase was added, followed by compounds in DMSO. ^33PATP was added to initiate the reaction in ATP at 10 μM. The kinase reaction was incubated for 120 min at room temp and reactions were spotted onto P81 ion exchange paper (Whatman #3698-915), and then washed extensively in 0.75% phosphoric acid, prior to reading the radioactivity counts. For JAK2 (Invitrogen) kinase assay the peptide substrate poly[Glu:Tyr](4:1), 0.2 mg/ml was used, in the reaction carried out the same as for TYK2.
(§2) The TYK2 and JAK2 radioactive kinase assay measures the percent inhibition at the TYK2 kinase domain (JH1) and the percent inhibition at the JAK2 kinase domain (JH1). Results of the assay are expressed as percent inhibition at 10 μM.

Assay [3] has as its target JAK2 kinase domain (JH1) (Homo sapiens (Human), UniProt O60674). Nature of the assay: JAK2 Radioactive Kinase Assay. Type of assay: biochemical. Particulars: compound at 10 μM; ATP at 10 μM; substrate poly[Glu:Tyr](4:1). The procedure: as §1, §2

What is called pKd is the Kd on a negative log10 scale, so that one unit is a factor of ten. Low values mean a high Kd, high ones a low Kd. By inhibition is commonly meant the percentage by which the read-out fell short of the control.

pKd: −log10 of the molar value.

Chain of human TYK2 (JH2domain-pseudokinase) (P29597 556-888): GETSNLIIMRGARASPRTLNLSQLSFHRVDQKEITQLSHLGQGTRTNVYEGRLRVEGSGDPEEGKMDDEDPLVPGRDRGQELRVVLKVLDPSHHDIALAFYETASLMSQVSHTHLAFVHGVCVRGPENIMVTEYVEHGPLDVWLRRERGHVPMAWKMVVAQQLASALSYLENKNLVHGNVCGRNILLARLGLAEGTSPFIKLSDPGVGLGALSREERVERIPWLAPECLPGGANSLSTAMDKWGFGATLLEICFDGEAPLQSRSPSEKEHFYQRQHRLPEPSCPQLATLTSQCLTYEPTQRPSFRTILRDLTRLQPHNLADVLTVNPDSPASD
Chain of TYK2 kinase domain (JH1) (P29597 897-1176): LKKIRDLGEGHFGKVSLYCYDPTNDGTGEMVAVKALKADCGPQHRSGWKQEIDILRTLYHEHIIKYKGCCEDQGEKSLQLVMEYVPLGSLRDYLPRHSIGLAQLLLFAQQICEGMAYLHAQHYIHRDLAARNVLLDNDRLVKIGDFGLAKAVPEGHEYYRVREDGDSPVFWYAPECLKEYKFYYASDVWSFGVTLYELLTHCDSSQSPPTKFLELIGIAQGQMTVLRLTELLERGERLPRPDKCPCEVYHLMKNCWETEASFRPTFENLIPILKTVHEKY
Chain of JAK2 kinase domain (JH1) (O60674 849-1124): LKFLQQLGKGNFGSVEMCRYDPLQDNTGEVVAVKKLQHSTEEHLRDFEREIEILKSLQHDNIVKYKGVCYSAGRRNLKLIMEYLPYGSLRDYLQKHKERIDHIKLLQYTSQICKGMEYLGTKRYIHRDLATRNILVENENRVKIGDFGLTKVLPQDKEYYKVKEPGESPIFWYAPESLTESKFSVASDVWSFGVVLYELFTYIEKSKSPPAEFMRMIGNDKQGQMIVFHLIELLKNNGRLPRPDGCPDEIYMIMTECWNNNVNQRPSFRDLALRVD

In assay [1], `CNC(=O)c1cnc(NC(=O)C2CC2)c2[nH]c(-c3cccc(-c4cnc(C)cn4)c3)cc12` [Compound I-27, 7-(cyclopropanecarboxamido)-N-methyl-2-(3-(5-methylpyrazin-2-yl)phenyl)-1H-pyrrolo[2,3-c]pyridine-4-carboxamide] showed a pKd of over 9.70. The inhibition at 10 µM in assay [2] and in assay [3] was under 50% throughout.
The compound `CNC(=O)c1cnc(NC(=O)C2CC2)c2[nH]c(-c3cccc(-n4nccn4)c3)cc12` [Compound I-8, 2-(3-(2H-1,2,3-triazol-2-yl)phenyl)-7-(cyclopropanecarboxamido)-N-methyl-1H-pyrrolo[2,3-c]pyridine-4-carboxamide] gave a pKd in assay [1] of 8.00 to 9.00. The inhibition at 10 µM in assay [2] and in assay [3] was under 50% throughout.
In assay [1], `CNC(=O)c1cnc(NC(=O)C2CC2)c2[nH]c(-c3cc(-c4nccs4)cnc3OC3CC3)cc12` [Compound I-39, 7-(cyclopropanecarboxamido)-2-(2-cyclopropoxy-5-(thiazol-2-yl)pyridin-3-yl)-N-methyl-1H-pyrrolo[2,3-c]pyridine-4-carboxamide] showed a pKd of 8.00 to 9.00. Moreover, the inhibition at 10 µM in assay [2] and in assay [3] was under 50% in each case.
With `CNC(=O)c1cnc(NC(=O)C2CC2)c2[nH]c(-c3cccc(-n4ccc(C)n4)c3)cc12` [Compound I-7, 7-(cyclopropanecarboxamido)-N-methyl-2-(3-(3-methyl-1H-pyrazol-1-yl)phenyl)-1H-pyrrolo[2,3-c]pyridine-4-carboxamide], the pKd in assay [1] was 9.00 to 9.70. The inhibition at 10 µM in assay [2] and in assay [3] was under 50% each time.
Compound `CNC(=O)c1cnc(NC(=O)C2CC2)c2[nH]c(-c3ccc(C4=NC(C)(C)CO4)cc3OC)cc12` [Compound I-9, 7-(cyclopropanecarboxamido)-2-(4-(4,4-dimethyl-4,5-dihydrooxazol-2-yl)-2-methoxyphenyl)-N-methyl-1H-pyrrolo[2,3-c]pyridine-4-carboxamide] gave a negative logarithm of the Kd (pKd) in assay [1] of 9.00 to 9.70. The inhibition at 10 µM in assay [2] and in assay [3] was under 50% each time.
`CNC(=O)c1cnc(NC(=O)C2CC2)c2[nH]c(-c3cc(-c4ncco4)ccn3)cc12` [Compound I-15, 7-(cyclopropanecarboxamido)-N-methyl-2-(4-(oxazol-2-yl)pyridin-2-yl)-1H-pyrrolo[2,3-c]pyridine-4-carboxamide]: the pKd in assay [1] was 9.00 to 9.70. Also, the inhibition at 10 µM in assay [2] and in assay [3] was under 50% each time.
`CNC(=O)c1ccc(-c2cc3c(C(=O)NC)cnc(NC(=O)C4CC4)c3[nH]2)c(OC)c1` [Compound I-29, 7-(cyclopropanecarboxamido)-2-(2-methoxy-4-(methylcarbamoyl)phenyl)-N-methyl-1H-pyrrolo[2,3-c]pyridine-4-carboxamide] gave a pKd in assay [1] of 9.00 to 9.70. Moreover, the inhibition at 10 µM in assay [2] and in assay [3] was under 50% in each case.
Compound `CNC(=O)c1cnc(NC(=O)C2CC2)c2[nH]c(-c3ccc(C(=O)N4CCCC4)cc3OC)cc12` [Compound I-25, 7-(cyclopropanecarboxamido)-2-(2-methoxy-4-(pyrrolidine-1-carbonyl)phenyl)-N-methyl-1H-pyrrolo[2,3-c]pyridine-4-carboxamide] had a negative logarithm of the Kd (pKd) in assay [1] of over 9.70. Moreover, the inhibition at 10 µM in assay [2] and in assay [3] was under 50% in each case.
As for `CNC(=O)c1cnc(NC(=O)C2CC2)c2[nH]c(-c3cccc(-c4nc(C)n(C)n4)c3)cc12` [Compound I-28, 7-(cyclopropanecarboxamido)-2-(3-(1,5-dimethyl-1H-1,2,4-triazol-3-yl)phenyl)-N-methyl-1H-pyrrolo[2,3-c]pyridine-4-carboxamide], the pKd in assay [1] was 9.00 to 9.70. For the same compound, the inhibition at 10 µM in assay [2] and in assay [3] was under 50% throughout.
`CNC(=O)c1cnc(NC(=O)C2CC2)c2[nH]c(-c3ccc4ccn(C)c4c3F)cc12` [Compound I-21, 7-(cyclopropanecarboxamido)-2-(7-fluoro-1-methyl-1H-indol-6-yl)-N-methyl-1H-pyrrolo[2,3-c]pyridine-4-carboxamide]: in assay [1], the pKd is over 9.70. Further, the inhibition at 10 µM in assay [2] and in assay [3] was under 50% each time.
On to `CNC(=O)c1cnc(NC(=O)C2CC2)c2[nH]c(-c3cc(-c4csc(C)n4)ccn3)cc12` [Compound I-10, 7-(cyclopropanecarboxamido)-N-methyl-2-(4-(2-methylthiazol-4-yl)pyridin-2-yl)-1H-pyrrolo[2,3-c]pyridine-4-carboxamide], for which, in assay [1], the pKd was 9.00 to 9.70. Also, the inhibition at 10 µM in assay [2] and in assay [3] was under 50% in each case.
With `[2H]C([2H])([2H])NC(=O)c1cnc(NC(=O)C2CC2)c2[nH]c(-c3cc(-c4ncn(C)n4)ccn3)cc12` [Compound I-16, 7-(cyclopropanecarboxamido)-N-(methyl-d3)-2-(4-(1-methyl-1H-1,2,4-triazol-3-yl)pyridin-2-yl)-1H-pyrrolo[2,3-c]pyridine-4-carboxamide], the pKd in assay [1] is over 9.70. Further, the inhibition at 10 µM in assay [2] and in assay [3] was under 50% in each case.
In assay [1], `CNC(=O)c1cnc(NC(=O)C2CC2)c2[nH]c(-c3ccc(=O)n(C4CC4)c3)cc12` [Compound I-40, 7-(cyclopropanecarboxamido)-2-(1-cyclopropyl-6-oxo-1,6-dihydropyridin-3-yl)-N-methyl-1H-pyrrolo[2,3-c]pyridine-4-carboxamide] showed a pKd of 8.00 to 9.00. The inhibition at 10 µM in assay [2] and in assay [3] was under 50% throughout.
Take `CNC(=O)c1cnc(NC(=O)C2CC2)c2[nH]c(-c3cccnc3OC3CC3)cc12` [Compound I-34, 7-(cyclopropanecarboxamido)-2-(2-cyclopropoxypyridin-3-yl)-N-methyl-1H-pyrrolo[2,3-c]pyridine-4-carboxamide]: the pKd in assay [1] was over 9.70. Also, the inhibition at 10 µM in assay [2] and in assay [3] was under 50% each time.
`CCOc1ncc(-c2ccn(C)n2)cc1-c1cc2c(C(=O)NC)cnc(NC(=O)C3CC3)c2[nH]1` [Compound I-37, 7-(cyclopropanecarboxamido)-2-(2-ethoxy-5-(1-methyl-1H-pyrazol-3-yl)pyridin-3-yl)-N-methyl-1H-pyrrolo[2,3-c]pyridine-4-carboxamide]: in assay [1], the negative logarithm of the Kd (pKd) was 8.00 to 9.00. In addition, the inhibition at 10 µM in assay [2] and in assay [3] was under 50% in each case.
With `CNC(=O)c1cnc(NC(=O)C2CC2)c2[nH]c(-c3ccc4cn(C5CC5)nc4c3)cc12` [Compound I-20, 7-(cyclopropanecarboxamido)-2-(2-cyclopropyl-2H-indazol-6-yl)-N-methyl-1H-pyrrolo[2,3-c]pyridine-4-carboxamide], in assay [1], the pKd was 9.00 to 9.70. Also, the inhibition at 10 µM in assay [2] and in assay [3] was under 50% throughout.
Turning to `[2H]C([2H])([2H])NC(=O)c1cnc(NC(=O)C2CC2)c2[nH]c(-c3cccc(-c4ncn(C)n4)c3)cc12` [Compound I-6, 7-(cyclopropanecarboxamido)-N-(methyl-d3)-2-(3-(1-methyl-1H-1,2,4-triazol-3-yl)phenyl)-1H-pyrrolo[2,3-c]pyridine-4-carboxamide], the negative logarithm of the Kd (pKd) in assay [1] was over 9.70. Besides, the inhibition at 10 µM in assay [2] and in assay [3] was under 50% each time.
In turn, `CNC(=O)c1cnc(NC(=O)C2CC2)c2[nH]c(-c3cccc(-c4ncn(C)n4)n3)cc12` [Compound I-32, 7-(cyclopropanecarboxamido)-N-methyl-2-(6-(1-methyl-1H-1,2,4-triazol-3-yl)pyridin-2-yl)-1H-pyrrolo[2,3-c]pyridine-4-carboxamide] had a negative-log Kd (pKd) in assay [1] of 9.00 to 9.70. Also, the inhibition at 10 µM in assay [2] and in assay [3] was under 50% throughout.
Regarding `CNC(=O)c1cnc(NC(=O)C2CC2)c2[nH]c(-c3ccc(N4CCCC4=O)cc3OC)cc12` [Compound I-26, 7-(cyclopropanecarboxamido)-2-(2-methoxy-4-(2-oxopyrrolidin-1-yl)phenyl)-N-methyl-1H-pyrrolo[2,3-c]pyridine-4-carboxamide], in assay [1], the pKd is over 9.70. The inhibition at 10 µM in assay [2] and in assay [3] was under 50% throughout.
On to `CNC(=O)c1cnc(NC(=O)C2CC2)c2[nH]c(-c3cccc(N4CCOCC4)c3F)cc12` [Compound I-22, 7-(cyclopropanecarboxamido)-2-(2-fluoro-3-morpholinophenyl)-N-methyl-1H-pyrrolo[2,3-c]pyridine-4-carboxamide], for which the pKd in assay [1] is over 9.70. The inhibition at 10 µM in assay [2] and in assay [3] was under 50% throughout.
`CNC(=O)c1cnc(NC(=O)C2CC2)c2[nH]c(-c3cccc(N4CCC4)c3C#N)cc12` [Compound I-41, 2-(3-(azetidin-1-yl)-2-cyanophenyl)-7-(cyclopropanecarboxamido)-N-methyl-1H-pyrrolo[2,3-c]pyridine-4-carboxamide] gave a negative logarithm of the Kd (pKd) in assay [1] of 8.00 to 9.00.

The record behind these values is patent US11053241B2, “TYK2 inhibitors and uses thereof” (Nimbus Lakshmi, Inc., priority 2018, dated 2021).
